Laboratory results: patent publication US8541395B2 (priority 2009, dated 2013)

Tests used:
Kv1.5 = Kv1.5 (Homo sapiens, UniProt P22460); test: Patch clamp assay, ion channel inhibition; format: cell-based; conditions: 2000 μM; n=2
Protocol: (§1) The studies were conducted according to the conventional procedures.
(§2) The exposure duration of each channel was 5 minutes. […] Any left current after exposure to this dose was digitally subtracted to eliminate the contribution of any endogenous current.

Kir2.1 = target: T1, Kir2.1 (Homo sapiens, UniProt P63252); test: Patch clamp assay, ion channel inhibition; format: cell-based; conditions: 100 μM; n=2
T1 sequence (P63252 1-427): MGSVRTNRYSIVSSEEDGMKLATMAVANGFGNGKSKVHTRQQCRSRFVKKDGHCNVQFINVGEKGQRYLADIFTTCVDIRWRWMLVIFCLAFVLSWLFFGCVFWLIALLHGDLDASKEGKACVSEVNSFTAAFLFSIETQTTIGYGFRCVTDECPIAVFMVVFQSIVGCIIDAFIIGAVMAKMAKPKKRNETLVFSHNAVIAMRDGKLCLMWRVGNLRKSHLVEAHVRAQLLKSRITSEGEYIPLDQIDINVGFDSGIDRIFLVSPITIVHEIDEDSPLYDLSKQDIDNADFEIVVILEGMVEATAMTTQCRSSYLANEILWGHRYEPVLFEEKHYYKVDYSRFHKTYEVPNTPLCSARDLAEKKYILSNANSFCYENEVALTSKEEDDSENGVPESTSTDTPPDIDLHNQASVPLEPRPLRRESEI

Kir3.1/3.4 = target: T2, Kir3.1/3.4 (Homo sapiens, UniProt P48544+P48549); test: Patch clamp assay, ion channel inhibition; format: cell-based; conditions: 300 μM; n=2
T2 sequence (P48549 1-501): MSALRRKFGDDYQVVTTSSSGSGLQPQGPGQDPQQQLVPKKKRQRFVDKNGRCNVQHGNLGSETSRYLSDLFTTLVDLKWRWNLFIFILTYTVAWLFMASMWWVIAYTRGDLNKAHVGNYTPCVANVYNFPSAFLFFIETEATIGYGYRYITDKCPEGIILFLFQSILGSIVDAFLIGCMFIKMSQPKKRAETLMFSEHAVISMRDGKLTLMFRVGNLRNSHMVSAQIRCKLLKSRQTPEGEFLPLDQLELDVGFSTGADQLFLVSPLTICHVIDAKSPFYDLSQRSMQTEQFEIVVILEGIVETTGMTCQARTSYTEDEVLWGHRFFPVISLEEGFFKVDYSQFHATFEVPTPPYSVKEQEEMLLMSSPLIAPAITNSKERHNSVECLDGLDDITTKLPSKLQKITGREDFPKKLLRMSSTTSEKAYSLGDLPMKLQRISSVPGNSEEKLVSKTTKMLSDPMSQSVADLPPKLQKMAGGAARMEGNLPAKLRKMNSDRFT
T2 sequence (P48544 1-419): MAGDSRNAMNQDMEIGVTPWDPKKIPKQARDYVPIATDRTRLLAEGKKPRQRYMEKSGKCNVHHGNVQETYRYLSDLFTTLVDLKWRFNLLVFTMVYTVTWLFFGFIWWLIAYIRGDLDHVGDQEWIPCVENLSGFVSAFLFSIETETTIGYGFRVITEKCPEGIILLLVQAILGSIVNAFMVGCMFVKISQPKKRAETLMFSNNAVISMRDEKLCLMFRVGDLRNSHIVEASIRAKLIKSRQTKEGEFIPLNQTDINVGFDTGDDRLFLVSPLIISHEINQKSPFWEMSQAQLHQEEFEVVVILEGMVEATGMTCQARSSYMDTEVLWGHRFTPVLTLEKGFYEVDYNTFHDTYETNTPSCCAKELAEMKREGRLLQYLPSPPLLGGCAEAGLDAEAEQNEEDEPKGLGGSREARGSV
Protocol: as §1, §2

KvLQT/minK = target: T3, KvLQT/minK (Homo sapiens, UniProt P51787); test: Patch clamp assay, ion channel inhibition; format: cell-based; conditions: 30 μM; n=2
T3 construct: expressed in transfected cells
T3 sequence (P51787 whole entry): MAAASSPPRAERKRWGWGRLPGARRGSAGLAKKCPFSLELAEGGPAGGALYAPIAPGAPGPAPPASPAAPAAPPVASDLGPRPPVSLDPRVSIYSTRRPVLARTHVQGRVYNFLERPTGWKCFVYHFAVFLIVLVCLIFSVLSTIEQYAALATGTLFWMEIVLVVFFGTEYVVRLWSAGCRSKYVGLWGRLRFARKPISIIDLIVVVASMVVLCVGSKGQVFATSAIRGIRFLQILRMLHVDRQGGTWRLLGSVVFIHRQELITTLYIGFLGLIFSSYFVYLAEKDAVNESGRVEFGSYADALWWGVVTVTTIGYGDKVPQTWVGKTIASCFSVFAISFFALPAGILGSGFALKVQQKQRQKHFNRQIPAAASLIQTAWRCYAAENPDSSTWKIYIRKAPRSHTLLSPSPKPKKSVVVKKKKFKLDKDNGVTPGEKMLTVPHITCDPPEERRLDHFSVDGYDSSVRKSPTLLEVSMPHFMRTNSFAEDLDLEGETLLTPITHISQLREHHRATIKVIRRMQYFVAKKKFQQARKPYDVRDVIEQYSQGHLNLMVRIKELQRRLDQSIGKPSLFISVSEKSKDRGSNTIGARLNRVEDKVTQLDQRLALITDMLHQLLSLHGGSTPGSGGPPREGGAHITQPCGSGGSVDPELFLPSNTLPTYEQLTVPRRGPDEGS
Protocol: as §1, §2

Kv4.3 = target: T4, Kv4.3 (Homo sapiens, UniProt Q9UK17); test: Patch clamp assay, ion channel inhibition; conditions: read-out: Mean % inhibition (positive control)
T4 sequence (Q9UK17 1-655): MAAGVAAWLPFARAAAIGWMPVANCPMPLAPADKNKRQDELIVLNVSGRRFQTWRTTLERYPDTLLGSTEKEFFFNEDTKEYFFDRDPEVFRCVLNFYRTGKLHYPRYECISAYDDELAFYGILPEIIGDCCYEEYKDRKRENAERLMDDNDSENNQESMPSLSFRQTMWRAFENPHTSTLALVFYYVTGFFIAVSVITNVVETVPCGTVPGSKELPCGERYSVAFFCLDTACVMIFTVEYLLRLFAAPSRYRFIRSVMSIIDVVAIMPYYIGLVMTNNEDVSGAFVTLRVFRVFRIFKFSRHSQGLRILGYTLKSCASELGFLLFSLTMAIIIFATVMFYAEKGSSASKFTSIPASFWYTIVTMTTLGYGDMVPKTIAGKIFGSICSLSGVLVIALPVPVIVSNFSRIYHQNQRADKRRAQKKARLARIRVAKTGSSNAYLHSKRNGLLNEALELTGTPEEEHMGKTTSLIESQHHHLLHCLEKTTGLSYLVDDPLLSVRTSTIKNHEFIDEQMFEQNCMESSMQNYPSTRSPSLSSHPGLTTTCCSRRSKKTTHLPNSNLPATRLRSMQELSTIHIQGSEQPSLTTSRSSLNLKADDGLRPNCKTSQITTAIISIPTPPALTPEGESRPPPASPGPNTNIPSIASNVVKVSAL
Protocol: as §1, §2

Kir6.2/SUR2A = Kir6.2/SUR2A (Homo sapiens, UniProt O60706+Q14654); test: Patch clamp assay, ion channel inhibition; format: cell-based; conditions: n=2, read-out: Mean % inhibition (positive control)
Protocol: as §1, §2

Cav3.2 = Cav3.2 (Homo sapiens, UniProt O95180); format: cell-based; conditions: 100 μM; n=2
Sequence of Cav3.2 (O95180 whole entry): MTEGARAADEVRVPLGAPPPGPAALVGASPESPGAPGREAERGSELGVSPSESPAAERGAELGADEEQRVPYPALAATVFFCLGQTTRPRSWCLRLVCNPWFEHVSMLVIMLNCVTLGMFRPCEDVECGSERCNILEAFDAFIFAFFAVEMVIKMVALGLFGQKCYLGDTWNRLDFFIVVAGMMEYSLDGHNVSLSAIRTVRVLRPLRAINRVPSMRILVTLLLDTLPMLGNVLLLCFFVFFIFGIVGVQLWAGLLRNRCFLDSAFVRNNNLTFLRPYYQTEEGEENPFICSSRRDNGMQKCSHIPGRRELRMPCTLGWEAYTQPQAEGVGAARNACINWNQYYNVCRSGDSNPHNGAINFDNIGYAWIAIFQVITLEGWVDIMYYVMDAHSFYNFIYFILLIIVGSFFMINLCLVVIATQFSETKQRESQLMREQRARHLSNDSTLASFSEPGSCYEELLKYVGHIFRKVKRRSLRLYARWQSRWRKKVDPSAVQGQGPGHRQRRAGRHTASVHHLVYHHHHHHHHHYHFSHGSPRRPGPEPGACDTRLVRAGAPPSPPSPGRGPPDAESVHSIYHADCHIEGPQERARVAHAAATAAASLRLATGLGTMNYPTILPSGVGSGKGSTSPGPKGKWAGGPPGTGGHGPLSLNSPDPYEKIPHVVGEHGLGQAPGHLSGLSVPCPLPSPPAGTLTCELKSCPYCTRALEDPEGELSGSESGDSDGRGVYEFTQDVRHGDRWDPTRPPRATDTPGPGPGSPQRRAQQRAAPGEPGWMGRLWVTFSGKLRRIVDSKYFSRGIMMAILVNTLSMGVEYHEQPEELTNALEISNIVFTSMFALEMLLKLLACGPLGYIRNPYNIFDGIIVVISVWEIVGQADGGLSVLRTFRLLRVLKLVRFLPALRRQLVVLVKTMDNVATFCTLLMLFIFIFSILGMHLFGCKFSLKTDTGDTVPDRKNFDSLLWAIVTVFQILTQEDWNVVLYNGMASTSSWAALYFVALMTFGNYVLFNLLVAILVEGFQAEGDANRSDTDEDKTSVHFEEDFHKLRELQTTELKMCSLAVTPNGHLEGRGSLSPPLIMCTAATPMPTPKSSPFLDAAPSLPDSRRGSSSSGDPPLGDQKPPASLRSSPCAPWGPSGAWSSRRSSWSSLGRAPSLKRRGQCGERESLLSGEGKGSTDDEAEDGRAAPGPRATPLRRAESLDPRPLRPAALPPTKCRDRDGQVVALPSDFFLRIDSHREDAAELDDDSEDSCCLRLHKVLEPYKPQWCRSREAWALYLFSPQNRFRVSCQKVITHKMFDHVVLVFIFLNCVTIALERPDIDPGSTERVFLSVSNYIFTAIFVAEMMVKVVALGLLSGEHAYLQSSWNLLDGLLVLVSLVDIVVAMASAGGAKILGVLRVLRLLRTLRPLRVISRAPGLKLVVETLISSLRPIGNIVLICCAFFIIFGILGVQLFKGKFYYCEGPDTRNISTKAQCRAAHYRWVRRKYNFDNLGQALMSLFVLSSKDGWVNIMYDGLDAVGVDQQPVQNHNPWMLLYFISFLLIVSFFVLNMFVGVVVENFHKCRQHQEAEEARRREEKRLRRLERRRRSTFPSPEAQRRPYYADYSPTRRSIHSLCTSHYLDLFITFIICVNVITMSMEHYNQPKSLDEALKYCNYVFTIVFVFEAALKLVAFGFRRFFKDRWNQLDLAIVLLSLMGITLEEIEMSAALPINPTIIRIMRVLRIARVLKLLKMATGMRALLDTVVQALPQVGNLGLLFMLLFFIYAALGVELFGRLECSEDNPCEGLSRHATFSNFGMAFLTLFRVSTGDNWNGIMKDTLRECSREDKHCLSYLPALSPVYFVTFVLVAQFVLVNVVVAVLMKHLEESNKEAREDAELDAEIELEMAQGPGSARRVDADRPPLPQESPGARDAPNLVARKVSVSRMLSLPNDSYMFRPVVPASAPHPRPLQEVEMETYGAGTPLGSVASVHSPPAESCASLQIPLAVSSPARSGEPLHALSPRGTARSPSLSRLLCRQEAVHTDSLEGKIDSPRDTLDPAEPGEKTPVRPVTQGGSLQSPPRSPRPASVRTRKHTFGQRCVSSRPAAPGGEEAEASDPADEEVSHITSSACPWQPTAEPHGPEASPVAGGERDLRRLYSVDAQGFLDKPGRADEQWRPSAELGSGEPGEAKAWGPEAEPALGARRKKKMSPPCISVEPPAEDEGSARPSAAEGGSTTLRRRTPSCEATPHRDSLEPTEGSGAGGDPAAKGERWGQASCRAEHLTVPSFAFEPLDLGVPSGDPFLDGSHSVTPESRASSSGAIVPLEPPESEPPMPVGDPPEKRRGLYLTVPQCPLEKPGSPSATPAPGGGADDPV
Protocol: as §1, §2

male Swiss mice [1] = test: Formalin assay (intraplantar 4% formalin, phases 1 and 2) in mice
[2] = system: rats with sciatic nerve ligature; test: Chronic constrictive injury (CCI) model, allodynia (von Frey); conditions: for antinociceptive effect on allodynia: p<0.05
left atrium of rats = test: Inotropism of isolated rat atrium (cardiac contraction force)
Text: The left atrium of rats was used to assess the inotropic activity. The data were expressed as contraction force (g of tension), and were compared to the results obtained with bupivacaine.
The application of square pulses (5 V, 5 ms, 2 Hz) in the left atrium with frequency of 120 bpm was sufficient to produce a cardiac contraction force of 0.63±0.09 g of tension.

right atrium of rats = test: Chronotropism of isolated rat atrium (frequency of spontaneous contractions); conditions: 10^−7 M to 10^−4 M; n=6; p>0.05
Text: The right rat atrium was used to assess the chronotropic activity. The values of the spontaneous mechanical activity of the right atrium were expressed in contractions frequency or beats per minute (bpm). The heart rate was 298±50 contractions per minute in the rat right atrium.

male Swiss mice [3] = test: Contortion assay (0.6% acetic acid, abdominal contortions) in mice
male Swiss mice [4] = test: Tail flick assay
[5] = system: rats with sciatic nerve ligature; test: Chronic constrictive injury (CCI) model, hyperalgesia (Randall & Selitto paw pressure)
male Swiss mice [6] = test: Hot plate assay
[7] = naloxone 5 mg/kg i.p., morphine 10 mg/kg, telocinobufagin 5 mg/kg i.p.

Sequence of Kv1.5 (P22460 whole entry): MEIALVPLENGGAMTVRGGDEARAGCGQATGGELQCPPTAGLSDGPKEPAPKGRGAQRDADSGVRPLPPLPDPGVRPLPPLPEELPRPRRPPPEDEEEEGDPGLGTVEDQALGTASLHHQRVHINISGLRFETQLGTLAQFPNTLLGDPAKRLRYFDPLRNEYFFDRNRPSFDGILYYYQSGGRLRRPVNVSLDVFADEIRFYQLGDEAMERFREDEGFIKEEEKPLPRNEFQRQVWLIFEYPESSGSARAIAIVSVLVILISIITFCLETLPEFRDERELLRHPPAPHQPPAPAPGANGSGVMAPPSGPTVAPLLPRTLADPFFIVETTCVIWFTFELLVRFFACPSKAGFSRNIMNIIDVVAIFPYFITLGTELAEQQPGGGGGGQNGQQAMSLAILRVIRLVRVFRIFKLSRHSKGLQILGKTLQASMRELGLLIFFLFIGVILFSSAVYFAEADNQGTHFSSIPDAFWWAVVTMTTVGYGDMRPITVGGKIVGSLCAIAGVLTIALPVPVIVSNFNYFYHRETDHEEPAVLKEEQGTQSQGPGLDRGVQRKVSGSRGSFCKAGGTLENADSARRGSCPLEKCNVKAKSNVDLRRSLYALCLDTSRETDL

SMILES: Nc1ccncc1 [4-AP]
- Mean % inhibition (positive control) (Kv1.5): 85.1%

SMILES: [Ba] [Barium]
- Mean % inhibition (positive control) (Kir2.1): 85.4%
- Mean % inhibition (positive control) (Kir3.1/3.4): 86.6%

SMILES: CCS(=O)(=O)N(C)[C@H]1c2cc(C#N)ccc2OC(C)(C)[C@@H]1O [Chromanol-293B]
- Mean % inhibition (positive control) (KvLQT/minK): 87.8%

SMILES: O=C(NCC1CCCCN1)c1cc(OCC(F)(F)F)ccc1OCC(F)(F)F (centres unmarked) [Flecainide]
- inhibition at 100 µM (Kv4.3): 96.1%

SMILES: COc1ccc(Cl)cc1C(=O)NCCc1ccc(S(=O)(=O)NC(=O)NC2CCCCC2)cc1 [Glibenclamide]
- inhibition at 1 µM (Kir6.2/SUR2A): 79.8%

SMILES: [Ni] [Nickel]
- Mean % inhibition (positive control) (Cav3.2): 76.6%

SMILES: C[C@]12CC[C@H](O)C[C@@]1(O)CC[C@@H]1[C@@H]2CC[C@]2(C)[C@@H](c3ccc(=O)oc3)CC[C@]12O [telocinobufagin, (3β,5β)-3,5,14-trihydroxy-bufa-20,22-dienolide]
- antinociceptive effect compared to the other analgesics, phase 1 (male Swiss mice [1]; phase 1, 10 mg/kg oral vs diclofenac 50, dipyrone 50, codeine 20 mg/kg i.p., p<0.05): pretty much superior to that of the other analgesics
- licks blocked compared to the control group, phase 1 (male Swiss mice [1]; phase 1, 10 mg/kg oral, p<0.005): ~80%
- effect of naloxone on the analgesic action, phase 1 (male Swiss mice [1]; phase 1, naloxone 5 mg/kg i.p., morphine 10 mg/kg, telocinobufagin 5 mg/kg oral): did not block
- antinociceptive effect, mol to mol, greater than that of morphine, phase 1 (male Swiss mice [1]; phase 1, telocinobufagin 10 mg/kg oral vs morphine sulfate 10 mg/kg i.p.): ~40%
- antinociceptive effect compared to the other analgesics, phase 2 (male Swiss mice [1]; phase 2, 5 mg/kg oral vs diclofenac 50, dipyrone 50, codeine 20 mg/kg i.p., p<0.05): pretty much superior to that of the other analgesics
- licks blocked compared to the control group, phase 2 (male Swiss mice [1]; phase 2, 10 mg/kg oral, p<0.0001): ~100%
- effect of naloxone on the analgesic action, phase 2 (male Swiss mice [1]; phase 2, naloxone 5 mg/kg i.p., morphine 10 mg/kg, telocinobufagin 5 mg/kg oral): did not block
- antinociceptive effect, mol to mol, greater than that of morphine, phase 2 (male Swiss mice [1]; phase 2, telocinobufagin 5 mg/kg oral vs morphine sulfate 10 mg/kg i.p.): ~58%
- antinociceptive effect on allodynia ([2]; 5 mg/kg i.p.): blocking completely the allodynia
- antinociceptive effect on allodynia ([2]; 20 mg/kg oral): blocking completely the allodynia
- duration of the analgesic effects on allodynia ([2]; intraperitoneal 5 mg/kg): around 6 hours
- reversion of the allodynia (compared to RP) ([2]; intraperitoneal TBC 5 mg/kg): reverted completely the allodynia
- effect of naloxone on the analgesic action, allodynia [2, 7]: did not block significantly
- duration of the analgesic effects on allodynia ([2]; oral 20 mg/kg): around 6 hours
- reversion of the allodynia (compared to RP) ([2]; oral TBC 20 mg/kg): reverted completely the allodynia
- alteration of the cardiac contraction force (left atrium of rats; 10^−3 M during 12 minutes, p>0.05): did not produce significant alteration
- alteration of the cardiac contraction force compared to the control (left atrium of rats; 10^−7 to 10^−4 M): no significant alteration
- alteration of the spontaneous mechanical cardiac activity compared to the control (right atrium of rats): no significant alteration
- antinociceptive effect compared to the other analgesics (male Swiss mice [3]; 10 mg/kg oral vs diclofenac 50, dipyrone 50, codeine 20 mg/kg i.p., p<0.05): pretty much superior to the effects of the other analgesics
- contortions blocked compared to the control group (male Swiss mice [3]; 10 mg/kg oral, mice, p<0.001): ~90%
- effect of naloxone on the analgesic action (male Swiss mice [3]; naloxone 5 mg/kg i.p., morphine 10 mg/kg i.p., telocinobufagin 10 mg/kg oral): did not block
- antinociceptive effect, mol to mol, greater than that of morphine (male Swiss mice [3]; telocinobufagin 10 mg/kg oral vs morphine sulfate 10 mg/kg i.p.): ~40%
- antinociceptive effect (tail flick latency) (male Swiss mice [4]; doses of 2.5 and 5 mg/kg oral, p<0.05): significant antinociceptive effects
- effect of naloxone on the analgesic action (male Swiss mice [4]; naloxone 5 mg/kg i.p., morphine 10 mg/kg, telocinobufagin 5 mg/kg oral): did not block
- duration of the analgesic effects on hyperalgesia ([5]; intraperitoneal 5 mg/kg): around 6 hours
- increase of the response compared to the control group (RPtest), hyperalgesia ([5]; intraperitoneal 5 mg/kg, p<0.001): approximately 9 times
- effect of naloxone on the analgesic action, hyperalgesia [5, 7]: did not block significantly
- duration of the analgesic effects on hyperalgesia ([5]; oral 20 mg/kg): around 6 hours
- increase of the response compared to the control group (RPtest), hyperalgesia ([5]; oral 20 mg/kg, p<0.05): ~3.9 times
- antinociceptive effect, mol to mol, greater than that of morphine, hyperalgesia ([5]; telocinobufagin 5 mg/kg i.p. (20 mg/kg oral) vs morphine sulfate 10 mg/kg i.p.): approximately 900%
- antinociceptive effect compared to the other analgesics, hyperalgesia ([5]; vs diclofenac, codeine, dipyrone, amitriptyline, carbamazepine, prednisone, p<0.05): pretty much superior to that of the other analgesics
- solubility in 50% DMSO (Solubility; 50% DMSO (v/v in water)): soluble
- solubility in ethanol (Solubility; ethanol (100%)): soluble
- solubility in chloroform (Solubility; pure chloroform): soluble
- solubility in water (Solubility; water): insoluble
- effect of naloxone on the analgesic action (male Swiss mice [6]; naloxone 5 mg/kg i.p., morphine dose printed as 'mg/kg', telocinobufagin 5 mg/kg oral): did not block
- increase of the response (latency) compared to control group (male Swiss mice [6]; oral, dose printed as 'mg/kg' without figure, p<0.001): approximately 450%
